Measured values taken from patent publication US8445501B2, “Substituted 7-carboxamido-pyrrolo[3,2-d]pyrimidines” (Takeda GmbH, priority 2008, dated 2013).

Each compound was assayed against T1, human PDE5 (Homo sapiens, UniProt O76074) (assay: Inhibition of the type 5 phosphodiesterase (PDE5) activity, modified SPA test with platelet lysate). Conditions: PDE5 from human platelet lysate, 0.5 μM cGMP.
T1 construct: from tissue; host or cells: platelets from fresh blood of human donors (lysate, 10,000 g supernatant)
Assay type: biochemical
How it was run: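 SPA-based cGMP hydrolysis, [3H]cGMP tracer in 0.5 μM cGMP, by sonicated human platelet lysate; motapizone (1 μM) and a PDE2 inhibitor (10 nM) block other PDEs. Reaction 15 min at 37 °C after 5 min preincubation, quenched with beads containing IBMX. IC50 from concentration-effect curves.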

Row | SMILES | IC50 [nM]
1 | COCCOc1ccc2c(c1-c1ncnc3c(C(=O)N[C@H]4CC[C@H](NC(=O)CO)CC4)c[nH]c13)OCO2 [Example 260, trans-4-[5-(2-Methoxy-ethoxy)-benzo[1,3]dioxol-4-yl]-5H-pyrrolo[3,2-d]pyrimidine-7-carboxylic acid [4-(2-hydroxy-acetylamino)-cyclohexyl]-amide] | 4.79
2 | COCCOc1ccc2c(c1-c1ncnc3c(C(=O)N[C@H]4CC[C@@H](NC(=O)CO)CC4)c[nH]c13)OCO2 [Example 261, cis-4-[5-(2-Methoxy-ethoxy)-benzo[1,3]dioxol-4-yl]-5H-pyrrolo[3,2-d]pyrimidine-7-carboxylic acid [4-(2-hydroxy-acetylamino)-cyclohexyl]-amide] | 11
3 | COCCOc1ccc2c(c1-c1ncnc3c(C(=O)N[C@H]4CC[C@@H](NC(=O)[C@H](C)O)CC4)c[nH]c13)OCO2 [Example 262, cis-4-[5-(2-Methoxy-ethoxy)-benzo[1,3]dioxol-4-yl]-5H-pyrrolo[3,2-d]pyrimidine-7-carboxylic acid [4-((S)-2-hydroxy-propionylamino)-cyclohexyl]-amide] | 9.33
4 | COCCOc1ccc2c(c1-c1ncnc3c(C(=O)NC4CCN(C(=O)[C@H](C)O)CC4)c[nH]c13)OCO2 [Example 263, 4-[5-(2-Methoxy-ethoxy)-benzo[1,3]dioxol-4-yl]-5H-pyrrolo[3,2-d]pyrimidine-7-carboxylic acid [1-((S)-2-hydroxy-propionyl)piperidin-4-yl]-amide] | 10
5 | COCC(=O)N1CCC(NC(=O)c2c[nH]c3c(-c4cc(C(C)=O)ccc4OCC4CC4)ncnc23)CC1 [Example 265, 4-(5-Acetyl-2-cyclopropylmethoxy-phenyl)-5H-pyrrolo[3,2-d]pyrimidine-7-carboxylic acid [1-(2-methoxy-acetyl)piperidin-4-yl]-amide] | 0.288
6 | CC(=O)c1cc(-c2ncnc3c(C(=O)NC4CCN(C(=O)[C@H](C)O)CC4)c[nH]c23)c(OCC2CC2)cc1C [Example 267, 4-(5-Acetyl-2-cyclopropylmethoxy-4-methyl-phenyl)-5H-pyrrolo[3,2-d]pyrimidine-7-carboxylic acid [1-((S)-2-hydroxy-propionyl)piperidin-4-yl]-amide] | 0.324
7 | CC(=O)c1cc(-c2ncnc3c(C(=O)NC4CCN(C(C)=O)CC4)c[nH]c23)c(OCC2CC2)cc1C [Example 268, 4-(5-Acetyl-2-cyclopropylmethoxy-4-methyl-phenyl)-5H-pyrrolo[3,2-d]pyrimidine-7-carboxylic acid (1-acetyl-piperidin-4-yl)-amide] | 0.794
8 | COCCNC(=O)[C@H]1CC[C@H](NC(=O)c2c[nH]c3c(-c4c(OCC5CC5)ccc5c4OCO5)ncnc23)CC1 [Example 269, trans-4-(5-Cyclopropylmethoxy-benzo[1,3]dioxol-4-yl)-5H-pyrrolo[3,2-d]pyrimidine-7-carboxylic acid [4-(2-methoxy-ethylcarbamoyl)-cyclohexyl]-amide] | 0.575

Continued by falling IC50, values first:

Row | IC50 [nM] | SMILES
9 | 0.219 | CC(=O)c1ccc(OCC2CC2)c(-c2ncnc3c(C(=O)NC4CCN(C(=O)[C@H](C)O)CC4)c[nH]c23)c1 [Example 264, 4-(5-Acetyl-2-cyclopropylmethoxy-phenyl)-5H-pyrrolo[3,2-d]pyrimidine-7-carboxylic acid [1-((S)-2-hydroxy-propanoyl)piperidin-4-yl]-amide]
10 | 0.191 | O=C(N[C@H]1CC[C@H](C(=O)NC2CC2)CC1)c1c[nH]c2c(-c3c(OCC4CC4)ccc4c3OCO4)ncnc12 [Example 270, trans-4-(5-Cyclopropylmethoxy-benzo[1,3]dioxol-4-yl)-5H-pyrrolo[3,2-d]pyrimidine-7-carboxylic acid (4-cyclopropylcarbamoyl-cyclohexyl)-amide]
11 | 0.0794 | CC(=O)c1ccc(OCC2CC2)c(-c2ncnc3c(C(=O)NC4CCN(C(C)=O)CC4)c[nH]c23)c1 [Example 266, 4-(5-Acetyl-2-cyclopropylmethoxy-phenyl)-5H-pyrrolo[3,2-d]pyrimidine-7-carboxylic acid (1-acetyl-piperidin-4-yl)-amide]
